# Measurements published in paper PMC12035797, “Peptidomimetics Activating the Proteasome: A New Perspective for Parkinson’s Treatment” (Journal of Medicinal Chemistry, 2025).
# Entries after “also recorded” stand apart in the source; their conditions may differ.
# Columns and labels:
# [1] = tested on: endogenous α-synuclein in primary cortical cultures; test: Endogenous α-synuclein level in primary cortical cultures (Simple Western Jess); type: cell-based, mouse; conditions: 2.5 μM, 7 days; statistical significance only for 1g
# Experimental: The effectiveness of the compounds has also been examined by using proteins as substrates. By means of SDS-PAGE electrophoresis, we checked the extent to which model proteins were digested by the 20S proteasome alone and after its stimulation by 10 μM modulators. […] After incubation with the enzyme in the presence of each modulator, less than 40% of synuclein remained. […] All animal experiments were performed following the protocols evaluated and approved by the Laboratory Animal Centre of the University of Helsinki (Ethics Approval License KEK24-013) and in accordance with the European Community Guidelines (Directive 2010/63/EU). […] The viability and number of neuronal cells were calculated automatically in an Automated Cell Counter (Bio-Rad), plated at a density of 1,000,000 cells per well on 6-well plates and cultured in Neurobasal A Medium (Thermo Fisher Scientific (Gibco), #12349015, Waltham, MA, USA) supplemented with GlutaMAX (Thermo Fisher Scientific (Gibco) #A1286001, Waltham, MA, USA), B-27 Supplement (Thermo Fisher Scientific (Gibco), #17504001, Waltham, MA, USA), and 200 ng/mL Primocin (Invitrogen, ant-pm-1, San Diego, CA, USA). […] Protein concentrations in the cell lysates were determined using a bicinchoninic acid (BCA) assay (Sigma-Aldrich, 3B9643-1L-KC, MO, USA) according to the manufacturer’s instructions. […]
# [2] = PAMPA, blood–brain barrier mimic; type: in vitro ADME; conditions: 500 μM, 37 °C, 22 h
# Text: In neurodegenerative diseases, proteins prone to aggregation accumulate in the neuronal cells. Therefore, a necessary feature of potential drugs is not only permeability across the cell membrane but also the ability to cross the blood-brain barrier (BBB). To preliminarily investigate this feature, we performed parallel artificial membrane permeation assays (PAMPA) including as positive controls propranolol and Tat47-57, known for their ability to penetrate the blood-brain barrier. Dopamine hydrobromide was included as a negative control. For comparison, we also tested compound 1a, which is devoid of a CPP sequence. […] The PAMPA was performed as previously described.[21] Briefly, a 2% solution of porcine brain lipid membrane (PBL; Avanti Polar Lipids Inc., Alabaster, AL, USA) in anhydrous dodecane was used as a mimic of the blood-brain barrier. Propranolol hydrochloride (Merck, Darmstadt, Germany) and Tat47-57 (synthesized in-house) served as positive controls, while dopamine hydrobromide (Merck, Darmstadt, Germany) was used as a negative control. Stock solutions of the tested compounds and controls were prepared at a concentration of 10 mM in deionized water and then diluted to 500 μM using 0.1 M PBS containing 5% DMSO. The donor-acceptor plate assembly was incubated at 37 °C while being shaken at 250 rpm for 22 h. Absorbance at 290 nm was measured for propranolol using an Infinite […] plate reader (Infinite […] plate reader, Tecan). For the other samples, fluorescence measurements were performed after the compounds were reacted with 0.02% fluorescamine. The rate of passive diffusion was calculated as the linear velocity of permeation (Pe). The data represent an average of three independent biological replicates.
# [3] = tested on: hippocampal neurons containing Lewy body-like pS129-αsyn aggregates; test: pS129-α-synuclein aggregates in PFF-treated hippocampal neurons; type: cell-based, mouse; conditions: 7 days after PFFs, 0.5 and 2.5 μM
# Text: Encouraged by the results received, we tested the ability of the modulator-CPP constructs to increase α-synuclein degradation in a cell model using primary mouse neuronal cells. The presence of Lewy-like neurites and Lewy-like bodies containing aggregated α-synuclein with phosphorylated serine 129 (pS129-αsyn) is a characteristic feature of the brains of people with Parkinson’s disease. To mimic these aggregations, we introduced a solution of preformed fibrils (PFFs) to the media of neuronal cells, which led to the induction of α-synuclein phosphorylation and its aggregation in neurons isolated from mouse embryos. PFFs are purified, prion-like fibrils of α-synuclein that are produced by expressing a recombinant monomeric protein in bacteria. Seven days after PFFs are introduced to the cells, large aggregates are visible in the cell soma, often next to the cell nucleus. We added the PFF solution to the hippocampal cells, and after an hour of incubation, we introduced solutions of the activator. After 7 days, we immunostained neuronal cells using a monoclonal antibody against the NeuN protein, which is commonly used in neuronal differentiation studies to assess their functional status. Additionally, we stained the nuclei of all incubated cells with DAPI. […] It is noteworthy that the number of cells in samples with activators was slightly higher (Figure 5), which may indicate neuroprotective properties. […] The main tool for monitoring this process was an antibody against pS129-αsyn. […] The fluorescent microscopy images (Figure 5) show the difference between the amounts of aggregated protein in the control sample and in the samples containing activators at different concentrations.
# Cells were isolated from pregnant mouse embryos at E16.0 and plated on precoated with poly-L-lysine wells of 96-well plates (PerkinElmer/Revvity Inc., Waltham, MA, USA) at 25,000 cells/well. The final medium volume was 150 μL/well. Cells were incubated at 37 °C, 5% CO2. […]
smiles,measurement,setting,value
C[C@@H](O)[C@H](NC(=O)[C@H](Cc1ccccc1)NC(=O)[C@H](Cc1ccc(O)cc1)NC(=O)CN(CCCCN)C(=O)[C@H](CCCNC(=N)N)NC(=O)[C@H](CCCNC(=N)N)NC(=O)[C@H](CCCNC(=N)N)NC(=O)[C@H](CCNC(=N)N)NC(=O)[C@H](CCCNC(=N)N)NC(=O)[C@@H](N)CCCNC(=N)N)C(=O)NCC(=O)N[C@@H](CO)C(=O)N[C@@H](CCCCN)C(=O)N[C@@H](CC(=O)O)C(=O)N[C@@H](Cc1c[nH]c2ccccc12)C(=O)N[C@@H](CCCNC(=N)N)C(=O)N[C@@H](CO)C(=O)N[C@@H](Cc1ccc(O)cc1)C(=O)N[C@@H](Cc1ccc(O)cc1)C(=O)N[C@@H](CO)C(=O)O [1g],effect on endogenous α-synuclein in primary cortical cultures,[1],able to reduce the amount of endogenous α-synuclein
same,"permeability across artificial BBB membrane, PAMPA",[2],had the ability to penetrate the artificial membrane mimicking the BBB
same,effect on hippocampal cells containing α-synuclein aggregates,[3],effectively reduced the number of hippocampal cells containing α-synuclein; also recorded: visible dependence of the degradation ability on concentration
